Species: Rattus norvegicus
Assay: DrugMatrix - Regimen: Daily Repeat
Type: toxicity, organism-based, Sprague-Dawley
Parameters: regimen Daily Repeat, gender Male, age 6-8 weeks
Details: in vivo, po, route oral GAVAGE, vehicle .5 % CMC; for BASOPHIL / EOSINOPHIL / ERYTHROCYTE COUNT / HEMATOCRIT / HEMOGLOBIN / LEUKOCYTE COUNT / LYMPHOCYTE / MEAN CORPUSCULAR HEMOGLOBIN / MEAN CORPUSCULAR HEMOGLOBIN CONCENTRATION / MEAN CORPUSCULAR VOLUME / MONOCYTE / NEUTROPHIL / PLATELET COUNT: tissue Blood; for ALANINE AMINOTRANSFERASE / ALBUMIN / ALKALINE PHOSPHATASE / ASPARTATE AMINOTRANSFERASE / BLOOD UREA NITROGEN / CHLORIDE / CHOLESTEROL / CREATINE PHOSPHOKINASE / CREATININE / GLUCOSE / PHOSPHORUS / POTASSIUM / SODIUM / TOTAL BILIRUBIN / TOTAL PROTEIN: tissue Plasma
[1] = 0 mg/kg, 72 h, dose level Control, time 3 day
[2] = 0 mg/kg, 120 h, dose level Control, time 5 day
[3] = 25 mg/kg, 72 h, dose level Low, time 3 day
[4] = 25 mg/kg, 120 h, dose level Low, time 5 day

What does the source list for `C[C@]12CCC(=O)C=C1CC[C@@H]1[C@@H]2C(=O)C[C@@]2(C)[C@H]1CC[C@]2(O)C(=O)CO` [CORTISONE]?
BASOPHIL [1]: 1.52%; EOSINOPHIL [1]: 0.98%; ERYTHROCYTE COUNT [1]: 6.96 x10E6/uL; HEMATOCRIT [1]: 44.65%; HEMOGLOBIN [1]: 13.62 G/DL; LEUKOCYTE COUNT [1]: 9.83 x10E3/uL; LYMPHOCYTE [1]: 76.48%; MEAN CORPUSCULAR HEMOGLOBIN [1]: 19.57 pg; MEAN CORPUSCULAR HEMOGLOBIN CONCENTRATION [1]: 30.47 G/DL; MEAN CORPUSCULAR VOLUME [1]: 64.22 fL; MONOCYTE [1]: 2.13%; NEUTROPHIL [1]: 18.6%; PLATELET COUNT [1]: 1217.17 x10E3/uL; ALANINE AMINOTRANSFERASE [1]: 41 u/L; ALBUMIN [1]: 3.77 G/DL; ALKALINE PHOSPHATASE [1]: 411.83 u/L; ASPARTATE AMINOTRANSFERASE [1]: 62.83 u/L; BLOOD UREA NITROGEN [1]: 15.17 mg/dL; CHLORIDE [1]: 104.33 MEQ/L; CHOLESTEROL [1]: 71.17 mg/dL; CREATINE PHOSPHOKINASE [1]: 123.5 u/L; CREATININE [1]: 0.55 mg/dL; GLUCOSE [1]: 182.67 mg/dL; PHOSPHORUS [1]: 11.23 mg/dL; POTASSIUM [1]: 7.03 MEQ/L; SODIUM [1]: 148 MEQ/L; TOTAL BILIRUBIN [1]: 0.57 mg/dL; TOTAL PROTEIN [1]: 6.85 G/DL; BASOPHIL [2]: 1.35%; EOSINOPHIL [2]: 0.43%; ERYTHROCYTE COUNT [2]: 6.96 x10E6/uL; HEMATOCRIT [2]: 44.35%; HEMOGLOBIN [2]: 13.98 G/DL; LEUKOCYTE COUNT [2]: 9.45 x10E3/uL; LYMPHOCYTE [2]: 80.83%; MEAN CORPUSCULAR HEMOGLOBIN [2]: 20.1 pg; MEAN CORPUSCULAR HEMOGLOBIN CONCENTRATION [2]: 31.52 G/DL; MEAN CORPUSCULAR VOLUME [2]: 63.72 fL; MONOCYTE [2]: 2.37%; NEUTROPHIL [2]: 14.05%; PLATELET COUNT [2]: 1298 x10E3/uL; ALANINE AMINOTRANSFERASE [2]: 42.17 u/L; ALBUMIN [2]: 3.77 G/DL; ALKALINE PHOSPHATASE [2]: 419 u/L; ASPARTATE AMINOTRANSFERASE [2]: 66.67 u/L; BLOOD UREA NITROGEN [2]: 16.67 mg/dL; CHLORIDE [2]: 103.17 MEQ/L; CHOLESTEROL [2]: 66.33 mg/dL; CREATINE PHOSPHOKINASE [2]: 148.33 u/L; CREATININE [2]: 0.58 mg/dL; GLUCOSE [2]: 196.83 mg/dL; PHOSPHORUS [2]: 11.8 mg/dL; POTASSIUM [2]: 6.47 MEQ/L; SODIUM [2]: 148.33 MEQ/L; TOTAL BILIRUBIN [2]: 0.53 mg/dL; TOTAL PROTEIN [2]: 6.77 G/DL; BASOPHIL [3]: 2.4%; EOSINOPHIL [3]: 0.4%; ERYTHROCYTE COUNT [3]: 6.64 x10E6/uL; HEMATOCRIT [3]: 45.5%; HEMOGLOBIN [3]: 13.9 G/DL; LEUKOCYTE COUNT [3]: 7.9 x10E3/uL; LYMPHOCYTE [3]: 78.6%; MEAN CORPUSCULAR HEMOGLOBIN [3]: 21 pg; MEAN CORPUSCULAR HEMOGLOBIN CONCENTRATION [3]: 30.6 G/DL; MEAN CORPUSCULAR VOLUME [3]: 68.5 fL; MONOCYTE [3]: 2.95%; NEUTROPHIL [3]: 15.4%; PLATELET COUNT [3]: 1648.5 x10E3/uL; ALANINE AMINOTRANSFERASE [3]: 43 u/L; ALBUMIN [3]: 3.8 G/DL; ALKALINE PHOSPHATASE [3]: 401 u/L; ASPARTATE AMINOTRANSFERASE [3]: 68.67 u/L; BLOOD UREA NITROGEN [3]: 12 mg/dL; CHLORIDE [3]: 103.67 MEQ/L; CHOLESTEROL [3]: 62.67 mg/dL; CREATINE PHOSPHOKINASE [3]: 120.67 u/L; CREATININE [3]: 0.53 mg/dL; GLUCOSE [3]: 178.33 mg/dL; PHOSPHORUS [3]: 12.83 mg/dL; POTASSIUM [3]: 6.87 MEQ/L; SODIUM [3]: 149 MEQ/L; TOTAL BILIRUBIN [3]: 0.47 mg/dL; TOTAL PROTEIN [3]: 6.63 G/DL; BASOPHIL [4]: 1.53%; EOSINOPHIL [4]: 0.33%; ERYTHROCYTE COUNT [4]: 7.03 x10E6/uL; HEMATOCRIT [4]: 45.13%; HEMOGLOBIN [4]: 14.27 G/DL; LEUKOCYTE COUNT [4]: 9 x10E3/uL; LYMPHOCYTE [4]: 77.9%; MEAN CORPUSCULAR HEMOGLOBIN [4]: 20.33 pg; MEAN CORPUSCULAR HEMOGLOBIN CONCENTRATION [4]: 31.67 G/DL; MEAN CORPUSCULAR VOLUME [4]: 64.27 fL; MONOCYTE [4]: 2.7%; NEUTROPHIL [4]: 16.73%; PLATELET COUNT [4]: 1381.67 x10E3/uL; ALANINE AMINOTRANSFERASE [4]: 45 u/L; ALBUMIN [4]: 3.7 G/DL; ALKALINE PHOSPHATASE [4]: 435 u/L; ASPARTATE AMINOTRANSFERASE [4]: 68.33 u/L; BLOOD UREA NITROGEN [4]: 15.33 mg/dL; CHLORIDE [4]: 103 MEQ/L; CHOLESTEROL [4]: 54 mg/dL; CREATINE PHOSPHOKINASE [4]: 128.67 u/L; CREATININE [4]: 0.5 mg/dL; GLUCOSE [4]: 186 mg/dL; PHOSPHORUS [4]: 12.57 mg/dL; POTASSIUM [4]: 6.6 MEQ/L; SODIUM [4]: 148 MEQ/L; TOTAL BILIRUBIN [4]: 0.47 mg/dL; TOTAL PROTEIN [4]: 6.6 G/DL

From ChEMBL document CHEMBL3885881, “DrugMatrix”
